In US20190330597A1, “COMPOSITION FOR CULTURE OF PLURIPOTENT STEM CELLS” (The Francis Crick Institute Limited, priority 2017, published 2019):

Assays:
hES cells = hES cells cultured in AI medium with inhibitors of FGF receptors, MEK/ERK or Activin/Nodal (TGFβ) signaling; format: cell-based, human; conditions: for morphology / survival of hES cells in AI medium with inhibitor: 100 nM PD173074, 1 μM PD0325901 or 10 μM SB-431542, vs DMSO control; for morphology / survival of hES cells in AI medium with inhibitor / expression of pluripotency proteins OCT4 and NANOG (immunofluorescence): 72 hours; for expression of pluripotency proteins OCT4 and NANOG (immunofluorescence): 100 nM PD173074 or 1 μM PD0325901
Procedure: For culture in AI media, cells were maintained on plates coated with 0.5 μg/cm^2 Laminin-511 (Biolamina, Takara), and generally passaged with ReLeSR, similar to cells in mTeSR™1 on Laminin. Early passage newly-derived hES cells in AI medium were passaged by manual picking. Cells in AI media were also split using various dissociation reagents, as indicated in the Examples. For Accutase or AccuMax (StemCell Technologies), the dissociation reagent was added to wells for 5-10 minutes, the well contents were collected and pelleted, and the dissociation reagent removed. Cells were then resuspended in AI media with or without […] ROCK inhibitor for plating. For Gentle Cell Dissociation Reagent (StemCell Technologies), the reagent was added to wells for 6 minutes, then aspirated and AI medium added. Well contents were collected and disaggregated with a 5 ml stripette. For 0.5 mM EDTA (Sigma), the reagent was added for 5 minutes, then aspirated, and AI medium added and cells disaggregated. For salt-free PBS (Gibco, Life Technologies), the reagent was added for 6 minutes, aspirated, then AI medium added and cells disaggregated.
For inhibitor treatment experiments, cell culture media was supplemented with 100 nM PD173074 (FGF receptor inhibitor), 1 μM PD0325901 (MEK inhibitor) or 10 μM SB-431542 (Activin/Nodal receptor inhibitor) as indicated in the Examples. Cells were exposed to inhibitors for 72 hours.
On the day of fixation, medium was removed from pluripotent cell lines or differentiated cells and the cells were washed with Dulbeco's Phosphate-Buffer saline (PBS) without calcium and magnesium (Thermo Fisher Scientific). Cells were fixed with 4% (w/v) paraformaldehyde (PFA) (ThermoFisher Scientific) for 1 h and permeabilised with 0.5% (w/v) Triton X-100 or 0.5% (v/v) Tween-20 (Sigma Aldrich). Non-specific binding was minimised using 2-10% (v/v) donkey serum (AbCam) in PBS (containing 0.05% (v/v) Tween-20 or 0.01% Tween-20). The following primary antibodies were used (all at 1:500 dilution unless otherwise indicated): anti-NANOG (AF1997 R&D Systems; REC-RCAB0001P, 2B Scientific; 4903P, Cell Signaling Technologies or ab21624, Abcam), anti-SOX17 (AF1924, R&D Systems), anti-TRA-1-81 (MAB4381, Millipore; or 560072, BD Biosciences), anti-TUJ1 (T2200, Sigma), anti-FOXA2 (3143, Cell Signaling), anti-OCT4 (sc-5279, Santa Cruz or 2750S, Cell Signaling Technologies), anti-SSEA4 (MA1-021, Life Technologies or MC-813-70, DSHB, 1:100), anti-TRA-1-60 (MAB4360, Millipore, 1:100), anti-CXCR4 (MAB173, R&D), anti-Desmin (RB-9014-R7, Neomarkers, 1:50), anti-AFP (A0008, Dako), anti-cytokeratin-18 (ab668, Abcam). Primary antibody was removed by washing with PBS (containing 0.05% or 0.01% v/v Tween-20). Secondary antibodies (Alexa Fluor® 488, Alexa Fluor® 594, Alexa Fluor® 555 donkey anti-rabbit, mouse or goat, Molecular Probes) were diluted in blocking solution at a 1:300 concentration and added to the corresponding wells for 1 hour at room temperature. Cells were the washed several times in of 0.1% (v/v) Tween-20 and placed in a last wash for 30 minutes. A drop of Vectashield containing DAPI (Vector Labs) was added to each well prior to imaging.

human embryos = assay: Human embryo culture with growth factor treatment, immunofluorescence and automated quantification; format: cell-based
Procedure: Human embryos were donated to the research project by informed consent under the UK Human Fertilisation and […] Licence number R0162. Vitrified embryos frozen in straws were thawed by quickly transferring the contents of the straw from liquid nitrogen directly into thaw solution (Irvine Scientific Vitrification Thaw Kit) and thawed as per manufacturer's instructions. Embryos frozen in cryopets were first thawed for 3 seconds in a 37° C. waterbath before transferring into thaw solution (Irvine Scientific Vitrification Thaw Kit). Embryos frozen in glass ampoules were thawed completely in a 37° C. waterbath after the top of the vial was removed under liquid nitrogen. The contents were emptied onto a petri dish and the embryo transferred through a gradient of sucrose solutions (Quinn's Advantage Thaw Kit, Origio) as per manufacturer's instructions.
Embryos were routinely cultured in Global Media (LifeGlobal) supplemented with 5 mg/mL LifeGlobal Protein Supplement pre-equilibrated in an incubator at 37° C. and 5% CO2. For growth factor or inhibitor treatment, these conditions were further supplemented with FGF2 (3718-FB-01M, R&D) or IGF1 (291-G1-10, R&D) as indicated.
Embryos were fixed with 4% (w/v) paraformaldehyde (PFA) (ThermoFisher Scientific) for 1 h at 4° C. on a rotating shaker and analysed as described previously (Niakan and Eggan, Developmental Biology, 2013: doi: 10.1016/j.ydbio.2012.12.008). Briefly, embryos were then transferred through several washes of 0.1% (v/v) Tween-20 (Sigma Aldrich) diluted in Dulbeco's Phosphate-Buffer saline (PBS) without calcium and magnesium (Thermo Fisher Scientific) to remove residual paraformaldehyde. Embryos were placed for 20 minutes in 0.5% (v/v) Tween-20 for permeabilization. Embryos were blocked for 1 hour at room temperature in blocking solution (10% donkey serum diluted in 0.1% (v/v) Tween-20). Embryos were placed in primary antibodies at a concentration of 1:500 in blocking solution overnight at 4° C. on a rotating shaker. The following primary antibodies were used (all at 1:500 dilution): anti-NANOG (AF1997 R&D Systems, REC-RCAB0001P 2B Scientific, or ab21624, Abcam), anti-GATA6 (SC-9055, Santa Cruz) and anti-SOX17 (AF1924, R & D Systems). The following day, embryos were transferred through 4 washes of 0.1% (v/v) Tween-20 then placed in a last wash for 30 minutes. Secondary antibodies (Cy3, FITC or Cy5 donkey anti-rabbit, mouse or goat, Molecular Probes) were diluted in blocking solution at a 1:300 concentration. Embryos were placed in secondary antibody for 1 hour at room temperature on a rotating shaker, transferred through 4 washes of 0.1% (v/v) Tween-20 and placed in a last wash for 30 minutes. Embryos were placed in a 50 μL 1:3 dilution of Vectashield containing DAPI (Vector Labs): 0.1% (v/v) Tween-20 on a coverslip bottom dish (MatTek) for confocal imaging.
Embryos were imaged on a Leica SP5 inverted confocal microscope (Leica Microsystems GmbH) at a z-section thickness of 3 μm or 2 μm for human or mouse embryos respectively. MINS 1.3 software was used to detect and segment nuclei and thus determine the number of cells in each embryo (http://katlab-tools.org/) (Lou et al., Stem Cell Reports 2014, doi: 10.1016/j.stemcr.2014.01.010). Confocal stacks in .tif format were loaded into the MINS pipeline for automated nuclear segmentation.
The MINS segmentation output was manually checked for appropriate segmentation and mitotic nuclei were removed from the analysis. Data were subsequently plotted using GraphPad Prism version 6 (GraphPad Software, La Jolla, Calif.).

H9 cells = assay: Test of laminin variants as basement membrane substrate for H9 cells in mTeSR1; format: cell-based, human; conditions: 0.5 μg/cm^2 coating, mTeSR1 media, 3 days, vs Matrigel
Text: We therefore interrogated the transcriptome data set to identify chemically defined and physiologically relevant substrates for the derivation of hES and iPS cells. We also interrogated the transcriptome data set and identified expression of transcripts for laminin-binding Integrin α6 and Integrin-β1 (ITGA6, ITGB1) in the human blastocyst, as shown in FIG. 3A. […] Consequently, recombinant human Laminin-511 (Biolamina) or a recombinant Laminin-511 E8 fragment (iMatrix-511, Takara) were selected as basement membrane substrates to culture hES cells, in order to recapitulate the niche within the blastocyst. To test the laminin variants, H9 cells in mTeSR™1 media were passaged onto plates coated with 0.5 μg/cm^2 of either iMatrix-511 (Takara) or LN-511 (Biolamina), as well as a control Matrigel plate, and cultured for 3 days.
For culture in mTeSR™1 media (StemCell Technologies), cells were generally maintained on Matrigel-coated (BD Biosciences) tissue culture plates. Matrigel coating was performed for one hour at room temperature (RT) as per the manufacturer's instructions Cells were passaged as clumps using ReLeSR (Stemcell Technologies). ReLeSR was added to wells for 30 seconds at RT then aspirated, then plates were incubated for 5 minutes at 37° C., quenched with mTeSR™1 and lightly tapped to dislodge clumps of the desired size. […]

`CCN(CC)CCCCNc1ncc2cc(-c3cc(OC)cc(OC)c3)c(NC(=O)NC(C)(C)C)nc2n1` [FGF receptor inhibitor, PD173074] was tested, and the “morphology / survival of hES cells in AI medium with inhibitor” value (shortened to “morphology / survival … with inhibitor”) (hES cells) was “retained the morphology of pluripotent cells” and the “expression of pluripotency proteins OCT4 and NANOG (immunofluorescence)” value (hES cells) was “retained the expression”.

`O=C(NOC[C@H](O)CO)c1ccc(F)c(F)c1Nc1ccc(I)cc1F` [MEK/ERK inhibitor, PD0325901] was tested, and the “morphology / survival … with inhibitor” value (hES cells) was “retained the morphology of pluripotent cells” and the “expression of pluripotency proteins OCT4 and NANOG (immunofluorescence)” value (hES cells) was “retained the expression”.

With `NC(=O)c1ccc(-c2nc(-c3ccc4c(c3)OCO4)c(-c3ccccn3)[nH]2)cc1` [TGFβ inhibitor, SB-431542] the “morphology / survival … with inhibitor” value (hES cells) was “underwent apoptosis” and the “NANOG expression in remaining colonies (immunofluorescence)” value (hES cells; 10 μM SB-431542, 3 days) was “undetectable in the majority of cells”.

With FGF2 the “GATA6 (extraembryonic marker) expression” value (human embryos; 100 ng/ml FGF2 from E2.5) was “still expressed”, the “NANOG expression compared to untreated controls (immunofluorescence)” value (human embryos; 100 ng/ml FGF2 from E2.5, analysed at E6-7) was “loss of NANOG expression” and the NANOG expression (human embryos; 100 ng/ml FGF2 from E5 to E6-7) was “remained expressed”. The “SOX17 (extraembryonic marker) expression” value (human embryos; 100 ng/ml FGF2 from E5 to E6-7) was “remained expressed”, the “GATA6 (extraembryonic marker) expression” value (human embryos; 1 μg/ml FGF2 from E2.5) was “still expressed” and the “NANOG expression compared to untreated controls (immunofluorescence)” value (human embryos; 1 μg/ml FGF2 from E2.5, analysed at E6-7) was “loss of NANOG expression”.

IGF1 was tested, and the “increase in the proportion of NANOG expressing cells compared to control embryos” value (human embryos; 17 nM IGF1 from E2.5, analysed at E6-7, p-value<0.05) was 2 fold and the “KLF17 (epiblast marker) expression” value (human embryos; human embryos treated with IGF1) was “expressed in a higher proportion of cells”.

For “Laminin-511: recombinant human Laminin-511 (Biolamina)”, the “pluripotency morphology of H9 cells on substrate” value (H9 cells) was “equivalent to Matrigel coating”.
